Test systems include OVCAR-4; CAKI-1; HCT-116; M14; U-251; SNB-75; MDA-MB-231; SK-MEL-28; 786-0; SR; NCI-H460; RXF 393; Hs-578T; HT-29; HCC 2998; CCRF-CEM; KM12; SF-295; SF-268; OVCAR-5.
Common to all, as to assay: NCI anticancer screen, dose series, 48 h

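Method: 48-hour compound exposure of cells in 96-well plates, five concentrations, linear interpolation of endpoints. GI50: concentration for 50% inhibition of growth.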 Activity calls are given as the source filed them. Cut-off read from the data, not from the text of the source: active = GI50 up to about 1.1 µM and inactive = higher.

For `C[C@@H](C[C@H]1OC(C)(C)O[C@@H]1C(C)(C)O)[C@H]1CC=C2[C@]3(C)[C@H](O)C[C@H]4C(C)(C)[C@H](O)CC[C@]4(C)[C@H]3CC[C@]21C`, the GI50 is 8.51 µM (inactive) in the test on OVCAR-4; 10.8 µM (inactive) in the test with CAKI-1; 5.86 µM (inactive) with HCT-116; 9.29 µM (inactive) with M14; 6.84 µM (inactive) in the test with U-251; 9.79 µM (inactive) in the test with SNB-75. In addition, the GI50 with MDA-MB-231 is 7.93 µM (inactive); in the test on SK-MEL-28, 9.95 µM (inactive); with 786-0 it was 9.73 µM (inactive); with SR, 4.76 µM (inactive); in the test with NCI-H460, 6.44 µM (inactive); in the test with RXF 393, 6.44 µM (inactive). Also, the GI50 is 7.33 µM (inactive) in the test with Hs-578T; 2.9 µM (inactive) in the test on HT-29; 7.08 µM (inactive) with HCC 2998; 5.64 µM (inactive) in the test on CCRF-CEM; 6.21 µM (inactive) with KM12; 9.14 µM (inactive) in the test on SF-295. Besides, the GI50 in the test on SF-268 was 10.5 µM (inactive); with OVCAR-5, 8.69 µM (inactive).

Consider `Cc1cc(C)c2c(c1)CC1(Cc3c(ccc(C)c3C)C1=O)C2=O` (stereo unspecified), for which the GI50 in the test with OVCAR-4, in the test on CAKI-1, in the test on HCT-116, with M14, with U-251 and in the test on SNB-75 was > 100 µM (inactive) throughout. Moreover, the GI50 in the test with MDA-MB-231, in the test on SK-MEL-28, in the test on 786-0, in the test on SR, with NCI-H460 and in the test with RXF 393 was > 100 µM (inactive) each time. In addition, the GI50 in the test on Hs-578T, in the test on HT-29, in the test on HCC 2998, with CCRF-CEM, with KM12 and with SF-295 was > 100 µM (inactive) each time. In addition, the GI50 in the test on SF-268 and in the test with OVCAR-5 was > 100 µM (inactive) each time.

For the molecule `COC1C(OC(=O)/C=C/C=C/C=C/C=C\C(=O)O)CCC2(CO2)C1C1(C)OC1CC=C(C)C` (stereo unspecified), the GI50 in the test on OVCAR-4, in the test with CAKI-1, in the test on HCT-116, in the test on M14, with U-251 and in the test on SNB-75 was > 100 µM (inactive) in each case. Further, the GI50 in the test on MDA-MB-231, with SK-MEL-28, in the test on 786-0, in the test with SR, with NCI-H460 and with RXF 393 was > 100 µM (inactive) throughout. Further, the GI50 in the test with Hs-578T, in the test on HT-29, with HCC 2998, in the test on CCRF-CEM, in the test with KM12 and in the test with SF-295 was > 100 µM (inactive) in each case. The GI50 with SF-268 and in the test with OVCAR-5 was > 100 µM (inactive) each time.

For the molecule `C=C[C@H]1CN2CCc3c([nH]c4c([C@@H]5CCCN5C)c(O)ccc34)[C@@H]2C[C@@H]1C[C@H]1c2[nH]c3ccccc3c2CCN1C`, the GI50 in the test on OVCAR-4 is 1.71 µM (inactive); in the test with CAKI-1, 1.71 µM (inactive); in the test with HCT-116, 0.366 µM (active); in the test with M14, 1.09 µM (active); in the test with U-251, 1.38 µM (inactive); in the test on SNB-75, 1.22 µM (inactive). Further, the GI50 in the test on MDA-MB-231 was 1.76 µM (inactive); with SK-MEL-28, 1.79 µM (inactive); in the test with 786-0, 1.4 µM (inactive); with SR, 0.256 µM (active); in the test on NCI-H460, 1.39 µM (inactive); in the test on RXF 393, 0.274 µM (active). In addition, the GI50 in the test on Hs-578T was 1.67 µM (inactive); in the test on HT-29 it was 1.28 µM (inactive); in the test on HCC 2998, 1.72 µM (inactive); with CCRF-CEM, 0.00427 µM (active); in the test on KM12, 1.47 µM (inactive); with SF-295, 1.57 µM (inactive). Also, the GI50 in the test with SF-268 was 1.74 µM (inactive); in the test with OVCAR-5 it was 1.79 µM (inactive).

Take `Cc1ccc([N+](=O)[O-])c2c(NCCC[N+](C)(C)[O-])ccnc12`: the GI50 in the test with OVCAR-4 was 20.3 µM (inactive); in the test with CAKI-1 it was 53.6 µM (inactive); in the test with HCT-116, 38.9 µM (inactive); with M14, 40.3 µM (inactive); in the test on U-251, 83.6 µM (inactive); in the test on SNB-75, 55.7 µM (inactive). Besides, the GI50 in the test on MDA-MB-231 is > 100 µM (inactive); with SK-MEL-28 it was > 100 µM (inactive); in the test on 786-0, > 100 µM (inactive); in the test on SR it was 48.5 µM (inactive); in the test on NCI-H460 it was 21.3 µM (inactive); with RXF 393, 34.4 µM (inactive). Moreover, the GI50 in the test with Hs-578T was 48.8 µM (inactive); in the test with HT-29, 34.8 µM (inactive); in the test on HCC 2998 it was 23.4 µM (inactive); in the test on CCRF-CEM, 44.6 µM (inactive); in the test with KM12, 40.1 µM (inactive); in the test on SF-295, 28.8 µM (inactive). Also, the GI50 in the test on SF-268 is > 100 µM (inactive); with OVCAR-5, 28.2 µM (inactive).

As for `CC(C)Cc1ccc(C(C)/C=C2\CCC(CN(C)C)C2=O)cc1` (stereo unspecified), the GI50 in the test on OVCAR-4 was 17 µM (inactive); in the test on CAKI-1, 17.5 µM (inactive); in the test on HCT-116, 7.05 µM (inactive); in the test on M14, 12.9 µM (inactive); with U-251, 16.7 µM (inactive); in the test with SNB-75 it was 14.1 µM (inactive). For the same molecule, the GI50 in the test on MDA-MB-231 was 2.28 µM (inactive); in the test on SK-MEL-28 it was 15.8 µM (inactive); in the test on 786-0, 2.96 µM (inactive); in the test with SR, 3.2 µM (inactive); in the test on NCI-H460, 20 µM (inactive); in the test with RXF 393, 20.1 µM (inactive). Moreover, the GI50 is 2.74 µM (inactive) with Hs-578T; 13.8 µM (inactive) in the test on HT-29; 16.8 µM (inactive) with HCC 2998; 3.92 µM (inactive) with CCRF-CEM; 5.27 µM (inactive) with KM12; 14.7 µM (inactive) with SF-295. Also, the GI50 was 11.6 µM (inactive) with SF-268 and 23 µM (inactive) in the test on OVCAR-5.

For the molecule `N#CCCCC[N+]12CN3CN(CN(C3)C1)C2`, the GI50 in the test on OVCAR-4, with CAKI-1, in the test on HCT-116, in the test with M14, with U-251 and in the test with SNB-75 was > 100 µM (inactive) each time. Besides, the GI50 in the test on MDA-MB-231 is > 100 µM (inactive); in the test on SK-MEL-28, > 100 µM (inactive); in the test on 786-0, > 100 µM (inactive); with SR, 30.8 µM (inactive); with NCI-H460, > 100 µM (inactive); with RXF 393 it was > 100 µM (inactive). Further, the GI50 in the test with Hs-578T is > 100 µM (inactive); in the test with HT-29 it was > 100 µM (inactive); in the test on HCC 2998, > 100 µM (inactive); with CCRF-CEM, 64 µM (inactive); in the test on KM12, > 100 µM (inactive); in the test on SF-295, > 100 µM (inactive). The GI50 with SF-268 and in the test on OVCAR-5 was > 100 µM (inactive) in each case.

On to `CCOC(=O)N/N=C(/N)c1cccc(Br)c1`, for which the GI50 in the test on OVCAR-4, with CAKI-1, with HCT-116, with M14, in the test on SNB-75 and in the test with MDA-MB-231 was > 100 µM (inactive) throughout. In addition, the GI50 in the test with 786-0, in the test with SR, with NCI-H460, in the test on RXF 393, with Hs-578T and in the test on HT-29 was > 100 µM (inactive) in each case. Further, the GI50 with HCC 2998, in the test on CCRF-CEM, with KM12, with SF-295, in the test on SF-268 and with OVCAR-5 was > 100 µM (inactive) in each case.

For the molecule `COC(=O)/C=C(\C)CC/C=C(\C)CCC1OC1(C)C` (stereo unspecified), the GI50 in the test on OVCAR-4 was 11.8 µM (inactive); in the test with CAKI-1, 11.7 µM (inactive); with HCT-116, 12.5 µM (inactive); with M14 it was 12.6 µM (inactive); with U-251, 11.8 µM (inactive); in the test on SNB-75, 17.4 µM (inactive). The GI50 with MDA-MB-231 was 12.1 µM (inactive); in the test on SK-MEL-28, 12.3 µM (inactive); in the test with 786-0 it was 12.6 µM (inactive); in the test with SR it was 8.79 µM (inactive); in the test with NCI-H460, 13.2 µM (inactive); in the test on RXF 393, 13.3 µM (inactive). Also, the GI50 in the test with Hs-578T was 16.1 µM (inactive); with HT-29 it was 14 µM (inactive); in the test with HCC 2998, 9.66 µM (inactive); with CCRF-CEM it was 4.65 µM (inactive); in the test on KM12 it was 9.48 µM (inactive); in the test with SF-295, 11.3 µM (inactive). Besides, the GI50 with OVCAR-5 is 13.6 µM (inactive).

Take `COC(=O)/C1=C/C=C\C[C@@]2(C)CC(c3ccoc3)OC(=O)[C@@H]2CC[C@H]1C` (stereo partly specified): the GI50 with OVCAR-4, with CAKI-1, with HCT-116, with M14, in the test with U-251 and with SNB-75 was > 25 µM (inactive) throughout. The GI50 in the test with MDA-MB-231, with SK-MEL-28, with 786-0, in the test on SR, in the test with NCI-H460 and in the test with RXF 393 was > 25 µM (inactive) each time. The GI50 with Hs-578T, in the test with HT-29, with HCC 2998, with CCRF-CEM, in the test with KM12 and with SF-295 was > 25 µM (inactive) throughout. Moreover, the GI50 in the test with OVCAR-5 is > 25 µM (inactive).

For the origin of these results see ChEMBL document CHEMBL1201862, “PubChem BioAssay data set” (2004).
